Reference: patent US20130059793A1, “EGF RECEPTOR MIMICKING PEPTIDES” (BOARD OF REGENTS, THE UNIVERSITY OF TEXAS SYSTEM, priority 2010, published 2013)

How the values were obtained:
[1] = target: binding of TGFα to the EGFR (Homo sapiens, UniProt P01135); assay: Displacement of TGFα from immobilized EGFR (FIG. 6B); conditions: increasing molar concentrations
Excerpt: (§1) The EGFR was coated onto 96-well plates at decreasing concentrations. […] D(CAAVC (SEQ ID NO:8)) was used as a negative peptidomimetic control at the same concentrations (circles). […] Bars represent mean±SEM.
(§2) Decreasing molar concentrations of EGFR were immobilized in vitro, after which the native ligand (EGF or TGFα) was used to establish the baseline for the binding of EGF to the EGFR, or of TGFα to the EGFR.

[2] = Nuclear magnetic resonance (NMR)-spectroscopy interactions; type: binding
[3] = system: polyclonal anti-CVRAC antibodies; assay: ELISA recognition of peptides by polyclonal anti-CVRAC antibodies (FIG. 4B); type: binding, rabbit
Excerpt: (§3) A representative experiment is depicted. […] Bars represent mean±SEM. […] (FIG. 4C) Effect of the synthetic peptides on HN5 tumor cells. […] Viability in the absence of peptide was set to 100%. […] Bars represent mean±SEM. […] Receptors were immunoprecipitated with antibodies against phosphorylated (p) pEGFR and were immunoblotted with anti-phosphotyrosine IgG.
Rabbits were immunized with KLH-conjugated CVRAC and a purified antibody was obtained. […] The capacity of rabbit IgG against CVRAC to recognize CVRAC, D(CARVC), and EGFR was measured by ELISA.
(§4) The EGFR served as an immobilized positive control, and BSA or control peptides (CVAAC) served as immobilized negative controls.

[4] = system: ERK; assay: EGF-induced phosphorylation of ERK in HN5 cells; type: cell-based; conditions: human HN5 head and neck cells
Excerpt: (§5) To dissect the downstream signal transduction cascade in this setting, proliferative, survival, and migratory pathways were examined.

[5] = system: AKT; assay: EGF-induced phosphorylation of AKT in HN5 cells; type: cell-based; conditions: human HN5 head and neck cells
Excerpt: as §5

[6] = system: EGFR; assay: EGF-induced EGFR autophosphorylation (immunoprecipitation, anti-phosphotyrosine blot); type: cell-based, human; conditions: HN5 tumor cells, EGF 15 min, FIG. 4E
Excerpt: as §3

[7] = system: EF43.fgf-4-derived tumors; assay: Treatment of tumor-bearing mice with peptides and peptidomimetics, tumor volume; type: in vivo; conditions: at the end of two weeks; Balb/c mice, EF43.fgf-4 tumors; 750 μg/mouse/dose for 5 days; mean±SEM
Excerpt: FIGS. 5A-B: CVRAC-targeted phage homes to tumor. (FIG. 5A) Targeting tumors versus control organs. […] An anti-phage antibody was used for staining H&E staining, with the corresponding fluorescence-based immunostaining, are shown in tumors (FIG. 5A). Tumor-bearing mice received CVRAC phage, CVAAC phage, or insertless control phage as indicated. Cohorts of tumor-bearing mice (n=5 mice/group) were used. A representative experiment is shown. Scale bar, 100 μm. (FIG. 5B) Treatment of tumor-bearing mice with peptides and peptidomimetics. Balb/c mice bearing EF43.fgf-4-derived tumors were divided into size-matched cohorts (n=7 mice/group); individual tumor volumes are represented before (black circles) and after (white circles). Peptides and peptidomimetics were administered at 750 μg/mouse/dose for 5 days. Shown are mean tumor volumes±SEM.
Selective phage homing to tumors was evaluated as described (Hajitou et al., 2006; Arap et al., 1998). […] Each cohort of mice (n=3 per experiment) with size-matched tumors received a set of test and control phage clones. After 6 h, tumor-bearing mice were perfused through the heart with 20 ml of PBS containing 4% paraformaldehyde (PFA). […] For experimental therapy, Balb/c mice bearing EF43.fgf-4-derived tumors were established, and tumor volumes were determined as described (Arap et al., 1998; Hajitou et al., 2006; Ciardiello et al., 1999). […]

[8] = system: p38; assay: EGF-induced phosphorylation of p38 in HN5 cells; type: cell-based; conditions: human HN5 head and neck cells
Excerpt: as §5

[9] = system: HN5 tumor cells; assay: Cell viability/proliferation, MTT assay, HN5; type: cell-based, human; design: cell proliferation / viability: dose or concentration left out as unconfirmed
Protocol: as §3
Tumor cell lines HN5, UMSCC 10A, GEO and EF43.fgf-4 were culture in standard conditions. Viability was assessed by MTT assays (Sigma) as described (Cardó-Vila et al., 2003). […] Samples were read at 570 nm.
Tumor cell lines HN5, UMSCC 10A, GEO and EF43.fgf-4 were maintained in high-glucose DMEM, supplemented with 10% heat-inactivated fetal bovine serum, 20 mM HEPES (pH 7.4), 100 IU/ml penicillin, 100 μg/ml streptomycin, and 4 mM glutamine at 5% CO2 at 37° C. EF43.fgf-4 were grown in G418 as described (Hajitou et al., 2006).

[10] = system: cetuximab; assay: Binding of synthetic peptides to cetuximab (ELISA-based, FIG. 3A, FIG. 4B); conditions: FIG. 4B (peptides plated at 10 μg/ml)
Excerpt: BSA served as an additional negative control, and the EGFR, as a positive control. […] Insertless phage served as a negative control. […] Bars represent mean±SEM.
as §3, §4

[11] = target: binding of EGF to the EGFR (Homo sapiens, UniProt P01133); assay: Displacement of EGF from immobilized EGFR (FIG. 6A); conditions: D(CARVC) from 30 to 1,000 mM, cetuximab 12 nM positive control
Chain of binding of EGF to the EGFR (P01133 971-1023 limits assumed): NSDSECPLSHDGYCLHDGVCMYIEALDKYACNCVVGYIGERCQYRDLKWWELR
Excerpt: as §1, §2

Chain of binding of TGFα to the EGFR (P01135 40-89 limits assumed): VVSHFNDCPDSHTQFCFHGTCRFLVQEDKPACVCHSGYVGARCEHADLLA

D(CARVC)
displacement of TGFα from the EGFR [1]: concentration-dependent displacement | interactions by NMR-spectroscopy [2]: Low-affinity interactions (micromolar range) | recognition by polyclonal anti-CVRAC antibodies [3]: recognized | EGF-induced phosphorylation of ERK [4]: inhibit | EGF-induced phosphorylation of AKT [5]: inhibit | EGF-induced tyrosine phosphorylation of the EGFR [6]: effectively inhibited | tumor volume [7]: 550±50 mm^3 | EGF-induced phosphorylation of p38 [8]: not | cell proliferation / viability ([9]; HN5, MTT, 120 h, increasing concentrations, FIG. 4C): proliferated much less | activity on an equimolar basis compared with CVRAC ([9]; prolonged (120 h) functional assay): more potent | binding of synthetic peptide to cetuximab [10]: retained binding activity | displacement of EGF from the EGFR [11]: concentration-dependent effect
